Results: BigSolDB 2.1

CC[C@H](/C=C/[C@@H](C)[C@H]1CC[C@H]2[C@@H]3CC=C4C[C@@H](OC(=O)/C=C\C(=O)O)CC[C@]4(C)[C@H]3CC[C@]12C)C(C)C
Conditions | solubility (mole fraction)
in acetone, 293.15 K | 0.000383
in acetone, 296.65 K | 0.000431
in acetone, 303.65 K | 0.000535
in acetone, 317.15 K | 0.000785
in acetone, 325.65 K | 0.00102
in ethyl acetate, 288.15 K | 0.00146
in ethyl acetate, 293.25 K | 0.00179
in ethyl acetate, 298.15 K | 0.00202
in ethyl acetate, 302.65 K | 0.0028
in ethyl acetate, 308.65 K | 0.00395
in ethyl acetate, 312.65 K | 0.00438
in ethyl acetate, 317.35 K | 0.0053
